95 compounds from PubChem BioAssay AID624491 (Broad Institute, 2012) can be followed below.

The source made the active and inactive calls.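 Rule for the calls: active = fitted curve crossing a set activation limit at or below the highest valid dose tested; inconclusive = flat fit at 30 to 70% activation, or poor fit; inactive = the rest, including signal decreases.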

This experiment deals with D54 ERlucT glycosylation luciferase reporter, luminescence, 24 h. In words: blockers of NLG process in reporter cells – D54 ERlucT cells, luminescence, cherry-picks, dose response (AID 624491).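 Note: signal gain reflects blocked N-linked glycosylation of a luciferase reporter; actives raise luciferase signal so AC26 marks activators of the reporter.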
Consider `O=C(c1ccc(Cl)c(S(=O)(=O)N2CCCCC2)c1)N1CCN(Cc2ccccc2)CC1`, for which the AC26 is 4150 nM.

With `O=c1cc(-c2ccc(O)cc2)oc2cc(O)c(C3OC(CO)C(O)C(O)C3O)c(O)c12` (stereo not given), the AC26 is 690 nM.

`Cc1nn(-c2ccccc2)c2c1CC(=O)Nc1ccccc1-2`: the AC26 is 329 nM.

Regarding `COc1cccc(-c2nn(C)c3sc(C(=O)NCc4ccco4)cc23)c1`, the AC26 is 3620 nM.

`NC(=O)CC(NC(=O)c1ccc(Br)cc1)c1ccc(NC2CCCCC2)c([N+](=O)[O-])c1` (stereo not given): the AC26 is 6020 nM.

Take `CC#CCN1c2ccccc2[C@]23C[C@@H](C(=O)OC)N(C(=O)c4cc(C)oc4C)C2=NC(C(=O)OC)=C(C(=O)OC)[C@H]13`: the AC26 is 1790 nM.

Regarding `CC(=O)Nc1cccc(-c2ccnc3c2CC(C)(C(=O)Nc2cccc(C(C)=O)c2)O3)c1` (stereo not given), the AC26 is 9480 nM.

For `Cc1ccnc(NC(=O)CCCOc2cc(=O)n(C)c3ccccc23)c1`, the AC26 was 14900 nM.

On to `CCn1c2ccccc2c2cc(NC(=O)COC(=O)Cc3cn4ccsc4n3)ccc21`, for which the AC26 is 1790 nM.

As for `CCN1C(=O)c2cccc3c(S(=O)(=O)NCC4CCCO4)ccc1c23` (stereo not given), the AC26 was 2990 nM.

On to `O=C(N/N=C/c1ccc(Cl)cc1)c1cc(-c2cccnc2)nc2ccccc12`, for which the AC26 was 417 nM.

As to `N#Cc1c(N)n(CCc2ccc(F)cc2)c2nc3ccccc3nc12`, the AC26 was 1590 nM.

Consider `CC1CN(C(=O)c2ccc(COc3ccc(C(C)C)cc3)o2)CC(C)O1` (stereo not given), for which the AC26 was 3780 nM.

As to `Cc1ccc2c(C)c3ccc4ccccc4c3c[n+]2c1`, the AC26 is 667 nM.

As for `O=C1Cc2c([nH]c3ccc([N+](=O)[O-])cc23)-c2ccccc2N1`, the AC26 is 318 nM.

For `CCN(CC)CCNC(=O)c1cc2c(=O)n(C)c3ccccc3c2s1`, the AC26 is 3940 nM.

Regarding `NC(=O)N=Nc1c2[nH]c3ccccc3nc-2c2ccccc12`, the AC26 was 1130 nM.

For the compound `C[C@@]12C(=O)Nc3cc(F)c(F)cc3C(=O)N1[C@H]1c3ccccc3OC[C@@H]1[C@@H]2c1ccccc1`, the AC26 was 784 nM.

Consider `NC(=O)CC(NC(=O)c1ccc(Br)cc1)c1ccc(N2CCCCCC2)c([N+](=O)[O-])c1` (stereo not given), for which the AC26 is 1410 nM.

As to `CCOC(=O)c1[nH]c(C)c(C(=O)Nc2ccc(C)c(F)c2)c1C`, the AC26 is 5420 nM.

`COc1cc(/C=N/NC(=O)c2cc(-c3cccn3C)n[nH]2)cc(OC)c1OC`: the AC26 was 1730 nM.

With `COc1ccc(NC(=O)c2ccc([N+](=O)[O-])o2)cc1`, the AC26 is 1020 nM.

As for `COc1ccccc1N1CCN(S(=O)(=O)CCNC(=O)c2cc(OC)c(OC)c(OC)c2)CC1`, the AC26 is 3850 nM.

As for `COc1cc(Nc2c3c(nc4ccccc24)CCC3)cc(OC)c1OC`, the AC26 was 71.5 nM.

Regarding `Cc1cccn2c(=O)c3cc(C(=O)NC4CCCCC4)n(C)c3nc12`, the AC26 is 10200 nM.

Consider `COc1ccc(-n2c(NNC(C)=O)nc3sc4c(c3c2=O)CCCC4)cc1`, for which the AC26 was 6720 nM.

Turning to `Oc1ccc(-c2csc(-c3c[nH]c4ccccc34)n2)c(O)c1`, the AC26 is 3410 nM.

With `O=C(NCc1ccc(F)c(F)c1)C1Cc2c(-c3ccc4c(c3)OCO4)ccnc2O1` (stereo not given), the AC26 was 2750 nM.

Regarding `COc1ccc(CC(=O)N(Cc2ccccc2)c2ccc(C)cc2)cc1OC`, the AC26 was 716 nM.

Consider `CC1CN(C(=O)c2cc(-c3ccncc3)nc3ccccc23)CC(C)O1` (stereo not given), for which the AC26 is 2020 nM.

For `Cc1c2cnccc2c(C)c2c1oc1ccccc12`, the AC26 is 2820 nM.

In the case of `CC(C)CN(C(=O)COC(=O)CCSc1ccc(Cl)cc1)c1c(N)n(Cc2ccccc2)c(=O)[nH]c1=O`, the AC26 is 4450 nM.

With `COc1ccc(C(=O)c2cc([N+](=O)[O-])ccc2N2CCN(C)CC2)cc1`, the AC26 was 2330 nM.

Regarding `NS(=O)(=O)c1ccc(NC(=O)c2cccc3cc4ccccc4nc23)cc1`, the AC26 was 1320 nM.

In the case of `COc1cc(F)ccc1-c1csc(C(NC(C)=O)c2ccc(F)c(F)c2)n1` (stereo not given), the AC26 is 681 nM.

With `Cc1ccnc(NC(=O)C(Cc2ccccc2)NC(=O)c2ccccc2)c1` (stereo not given), the AC26 was 564 nM.

With `CC(=O)Nc1ccc(C(=O)N/N=C/c2ccccc2OCc2ccccc2)cc1`, the AC26 is 1490 nM.

`CC[C@H](C)[C@@H](NC(=O)O[C@@H]1C(=O)c2cc(OC)ccc2O[C@H]1c1ccc(OC)c(Br)c1)C(=O)OC`: the AC26 is 335 nM.

For the compound `O=C(COc1ccccc1)Nc1cccc(-c2cn3cccnc3n2)c1`, the AC26 was 5880 nM.

`Cc1ccc(S(=O)(=O)NC2=C(N3CCN(Cc4ccccc4)CC3)C(=O)c3ccccc3C2=O)cc1`: the AC26 is 3810 nM.

For the compound `CC1(C(=O)Nc2ccc3c(c2)OCO3)Cc2c(-c3ccc4c(c3)OCO4)ccnc2O1` (stereo not given), the AC26 is 7650 nM.

Turning to `Cc1ccc(S(=O)(=O)Nc2ccc3c(c2)n(C)c(=O)n3C)cc1`, the AC26 was 1460 nM.

In the case of `COc1ccccc1C(=O)Nc1nnc(CCc2ccccc2)s1`, the AC26 is 3720 nM.

Consider `COc1cc(/C=C/C(=O)/C=C(O)/C=C/c2ccc(O)c(OC)c2)ccc1O`, for which the AC26 was 2090 nM.

For the compound `COc1cc(NC(=O)c2ccccc2F)ccc1NC(=O)c1cc2ccccc2o1`, the AC26 is 2390 nM.

For the compound `c1ccc(CNc2nc(NCCc3ccncc3)c3sccc3n2)cc1`, the AC26 was 1120 nM.

Consider `COc1ccc(C=CC(=O)c2ccc(OC)c(OC)c2O)cc1OC`, for which the AC26 is 4390 nM.

For `O=c1cc(N/N=C/c2ccccc2)[nH]c(=O)[nH]1`, the AC26 is 14400 nM.

As to `CCn1c2ccccc2c2cc(NC(=O)COC(=O)c3ccc(O)cc3)ccc21`, the AC26 is 5820 nM.

For the compound `COC(=O)C(=Cc1ccc(-c2ccsc2C(=O)OC)o1)C(=O)OC`, the AC26 was 9800 nM.

As to `COc1ccc(Nc2cc(C)nc3ccc(OC)cc23)cc1`, the AC26 is 1830 nM.

Take `Cc1cc(C)nc(SC2=CS(=O)(=O)c3ccccc32)n1`: the AC26 is 4210 nM.

For `COc1cc2[nH]c(C(=O)Nc3ccc(F)cc3)cc2c(OC)c1OC`, the AC26 was 742 nM.

For the compound `COc1cccc(C(NC(C)=O)c2nc(-c3ccccc3OC)cs2)c1` (stereo not given), the AC26 is 452 nM.

As to `CC(=O)/C=C/c1ccccc1Oc1c(F)c(F)nc(F)c1F`, the AC26 was 183 nM.

Turning to `COc1ccc(C2=NOC(COc3ccc4c(C)cc(=O)oc4c3)C2)c(OC)c1` (stereo not given), the AC26 is 1070 nM.

Consider `O=C(Nc1ncccc1O)c1ccc(C(=O)c2ccccc2)cc1`, for which the AC26 was 5180 nM.

With `O=C(N/N=C/c1ccc(F)cc1)c1sccc1OCc1ccc(F)cc1`, the AC26 is 1630 nM.

With `Cc1ccc(Cl)cc1N1CCN(S(=O)(=O)c2ccc(-c3ccc(=O)[nH]n3)o2)CC1`, the AC26 was 5210 nM.

As for `O=C(Nc1ccncc1)C1CCCN(S(=O)(=O)c2cccc3cccnc23)C1` (stereo not given), the AC26 is 579 nM.

In the case of `COc1cc2c(cc1OC)-c1c3c(cc4c1[C@@H](C2)N(C)CC4)OCO3`, the AC26 was 17600 nM.

Take `COCCOC(=O)c1[nH]c2c(c1C)C(=O)CC(c1cccs1)C2` (stereo not given): the AC26 was 1380 nM.

On to `c1ccc(-c2n[nH]c(-c3ccccc3)c2-c2nc3ccccc3[nH]2)cc1`, for which the AC26 is 4360 nM.

On to `CCOc1cc(N2CCOCC2)c(OCC)cc1NC(=O)c1[nH]c(C)c(C(C)=O)c1C`, for which the AC26 was 1620 nM.

Consider `CCN(CC)CCn1c2ccccc2c2nc3ccccc3nc21`, for which the AC26 is 1950 nM.

Take `COc1ccc(S(=O)(=O)N2N=C(C)Oc3ccccc3C2=O)cc1`: the AC26 was 1250 nM.

Consider `COc1cc2c(C(=O)N3CCN(c4cccc(Cl)c4)CC3)cn(C)c(=O)c2cc1OC`, for which the AC26 is 3400 nM.

Consider `COc1ccccc1NC(=O)/C=C/c1ccc2c(c1)OCO2`, for which the AC26 was 3780 nM.

Regarding `CCN(CC)CCN1C(=O)c2cccc3cc(N)cc(c23)C1=O`, the AC26 was 1140 nM.

As for `O=C(c1[nH]c(C(F)(F)F)nc1-c1ccccc1)N1CCN(c2cccc(C(F)(F)F)n2)CC1`, the AC26 was 9230 nM.

For `CCc1nn2c(N(C)CCO)cc(C)nc2c1-c1ccc(F)cc1`, the AC26 was 12800 nM.

On to `COc1ccccc1N=CC1=C(O)CC(c2ccccc2)CC1=O` (stereo not given), for which the AC26 was 2740 nM.

For the compound `COC(=O)c1sc(N)c(C(=O)OC)c1COC(=O)c1c(C)noc1C`, the AC26 was 2130 nM.

As to `CCCCCCC(=O)N(O)C1CC(=O)N(c2ccc(Br)cc2)C1=O` (stereo not given), the AC26 was 689 nM.

On to `Cc1cc(C)c2c(c1)cc(C)c1nnc(SCC(=O)Nc3cc(C)on3)n12`, for which the AC26 was 12000 nM.

As for `CCc1ccc(/C=N/NC(=O)c2nnn(-c3nonc3N)c2C(C)C)cc1`, the AC26 is 6420 nM.

In the case of `COc1ccc(Nc2nc(N)c(C(=O)c3ccc(OC)cc3)s2)cc1`, the AC26 was 483 nM.

As to `CCOCCCNC(=O)c1cc2c(=O)n(CC)c3ccccc3c2s1`, the AC26 was 8290 nM.

In the case of `O=C1[C@@H]2Cc3c([nH]c4ccccc34)C(c3ccc([N+](=O)[O-])cc3)N2C(=O)CN1C1CC1` (stereo not given in full), the AC26 is 11500 nM.

On to `O=C(C[C@@H]1C/C=C/CC[C@H](Cc2ccc(F)cc2)C(=O)OC[C@@H](Cc2ccccc2)NC1=O)N[C@H](CO)Cc1ccccc1`, for which the AC26 is 4880 nM.

In the case of `Cc1nnc2c(NC3CCCCC3)nc3ccccc3n12`, the AC26 is 2760 nM.

As to `COc1ccc(OC)c(Nc2nc(-c3c(C)nc4ncccn34)cs2)c1`, the AC26 was 2730 nM.

For `COc1ccc(-c2nc(NCCCN(C)C)c3ccccc3n2)cc1`, the AC26 is 2490 nM.

Turning to `Cn1c(=O)cc(OCCCC(=O)NC2CCCC2)c2ccccc21`, the AC26 was 2400 nM.

As to `O=C(NCCCN1CCOCC1)c1cc(-c2ccc(F)cc2)on1`, the AC26 was 14000 nM.

Take `CCOC(=O)c1c(C)nc2c(c1-c1cc(OC)c(OC)c(OC)c1)C(=O)c1ccccc1-2`: the AC26 was 1560 nM.

On to `COc1cccc(C2=CC(c3cccs3)n3nnnc3N2)c1` (stereo not given), for which the AC26 is 700 nM.

On to `COc1ccc(C(=O)/C=C/c2ccc(N(C)C)cc2)c(OC)c1`, for which the AC26 is 11700 nM.

Regarding `COC(=O)Nc1nc(-c2ccccc2)c(C(=O)c2ccc(Cl)cc2)s1`, the AC26 is 3.16 nM.

On to `COc1cc(/C=C2\SC(=S)N(CCC(=O)N3CCCCC3)C2=O)cc(OC)c1OC`, for which the AC26 is 6840 nM.

As to `Cc1ccc(NC(=O)CSc2nnc(-c3ccco3)c(-c3ccco3)n2)cc1`, the AC26 is 1240 nM.

`CCNc1oc(/C=C/c2ccc(OCC)cc2)nc1C#N`: the AC26 was > 19500 nM (inactive).

Take `O=C(CSc1c2c(nc3ccc(Cl)cc13)CCCC2)N1CCN(C(=O)c2ccco2)CC1`: the AC26 was 7690 nM.

With `O=C(CSCc1ccco1)Nc1cc(C(F)(F)F)ccc1N1CCOCC1`, the AC26 is 2080 nM.

For the compound `Cc1ccc(C(=O)Nc2ccc(NC(=O)c3cccs3)cc2)c(C)c1`, the AC26 was 8550 nM.
